Earlier results, collected in US9981895B1 (Parnative, Inc., priority 2015, dated 2018).

Assays:
[1] = TBARS assay; CPC-purified compounds; Abbott et al. 2010
[2] = tested on: RAW 264.7 cell line; settings: MTT assay, Abbott et al. 2010
[3] = tested on: HeLa cell line; settings: MTT assay, Abbott et al. 2010

## 5-RE)-2-(4-hydroxyphenyl) ethenyl]-2-[(1E)-2-phenylprop-1-en-1-yl]benzene-1,3-diol [arachidin-3]
[1]
  dose at which oxidation was inhibited: 14 µM
[2]
  concentration at which cytotoxicity was demonstrated: 55 µM
[3]
  concentration at which cytotoxicity was demonstrated: 55 µM

## CC(C)/C=C/c1c(O)cc(/C=C/c2ccc(O)c(O)c2)cc1O [arachidin-1]
[1]
  dose at which oxidation was inhibited: 7 µM
[2]
  concentration at which cytotoxicity was demonstrated: 27 µM
[3]
  concentration at which cytotoxicity was demonstrated: 27 µM
